How the values were obtained:
Test in all cases: relative viability (nuclei count vs DMSO), 5 days (fraction); higher = more cells survive
[1] = compound: CN1CCC(CNc2ccc3ncc(-c4cccc(OC(F)(F)F)c4)n3n2)CC1 [SGI-1776] + CC(=O)c1c(C)c2cnc(Nc3ccc(N4CCNCC4)cn3)nc2n(C2CCCC2)c1=O [Palbociclib] (partner 0.5 µM)
Procedure, shortened: (§1)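 Values are medians from duplicate plates. Each reflects relative viability, defined as the nuclei count of treated wells over that of vehicle wells. Lung cancer cell lines in 1536-well plates were pin-tool dosed one day after seeding with one drug alone or with a fixed anchor-drug dose plus five library-drug doses (not always all listed) in √10 steps, then fixed, stained and imaged at 4× after 5 days.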

[2] = compound: C1COCCN1C2=NC(=NC3=C2OC4=C3C=CC=N4)C5=CC(=CC=C5)NC(=O)C6=CN=C(C=C6)N + Cc1nc(Nc2ncc(C(=O)Nc3c(C)cccc3Cl)s2)cc(N2CCN(CCO)CC2)n1 [Dasatinib] (partner 0.075 µM)
Procedure, shortened: as §1

[3] = compound: CN1CCC(CNc2ccc3ncc(-c4cccc(OC(F)(F)F)c4)n3n2)CC1 [SGI-1776] + Nc1nc2[nH]cc(CCc3ccc(C(=O)N[C@@H](CCC(=O)O)C(=O)O)cc3)c2c(=O)[nH]1 [Pemetrexed] (partner 0.2 µM)
Procedure, shortened: as §1

[4] = compound: CN1CCC(CNc2ccc3ncc(-c4cccc(OC(F)(F)F)c4)n3n2)CC1 [SGI-1776] + CC1(C)CCC(c2ccc(Cl)cc2)=C(CN2CCN(c3ccc(C(=O)NS(=O)(=O)c4ccc(N[C@H](CCN5CCOCC5)CSc5ccccc5)c(S(=O)(=O)C(F)(F)F)c4)cc3)CC2)C1 [Navitoclax] (partner 0.5 µM)
Procedure, shortened: as §1

| Cell Line | relative viability ([1]; first compound 0.08 µM) | relative viability ([1]; first compound 0.8 µM) | relative viability ([1]; first compound 2.53 µM) | relative viability ([1]; first compound 8 µM) | relative viability ([2]; first compound 0.02 µM) | relative viability ([2]; first compound 0.06325 µM) | relative viability ([2]; first compound 0.2 µM) | relative viability ([2]; first compound 0.6325 µM) | relative viability ([2]; first compound 2 µM) | relative viability ([3]; first compound 0.08 µM) | relative viability ([3]; first compound 0.8 µM) | relative viability ([3]; first compound 2.53 µM) | relative viability ([3]; first compound 8 µM) | relative viability ([4]; first compound 0.08 µM) | relative viability ([4]; first compound 0.8 µM) | relative viability ([4]; first compound 2.53 µM) | relative viability ([4]; first compound 8 µM) |
| --- | --- | --- | --- | --- | --- | --- | --- | --- | --- | --- | --- | --- | --- | --- | --- | --- | --- |
| HOP-62 | 0.548 | 0.428 | 0.423 | 0.379 | 0.765 | 0.743 | 0.547 | 0.574 | 0.323 | 0.306 | 0.363 | 0.325 | 0.31 | 1.09 | 1.11 | 1.09 | 0.967 |
| IA-LM |  |  |  |  |  |  |  |  |  |  |  |  |  | 0.951 | 0.754 | 0.941 | 0.905 |
| LC-2-ad | 0.495 | 0.535 | 0.457 | 0.467 | 0.629 | 0.716 | 0.52 | 0.435 | 0.417 | 0.286 | 0.288 | 0.285 | 0.254 | 0.463 | 0.434 | 0.464 | 0.257 |
| LCLC-97TM1 | 0.252 | 0.231 | 0.198 | 0.228 | 0.865 | 0.939 | 0.762 | 0.914 | 0.675 | 0.182 | 0.2 | 0.143 | 0.182 | 0.533 | 0.528 | 0.314 | 0.355 |
| LCLC-103H | 0.524 | 0.456 | 0.475 | 0.401 | 0.433 | 0.468 | 0.479 | 0.514 | 0.344 | 0.488 | 0.446 | 0.452 | 0.466 |  |  |  |  |
| LK-2 | 0.513 | 0.735 | 0.647 | 0.534 | 0.253 | 0.284 | 0.245 | 0.245 | 0.283 | 0.295 | 0.352 | 0.291 | 0.201 | 0.98 | 0.828 | 0.772 | 0.549 |
| LOU-NH91 | 0.647 | 0.552 | 0.536 | 0.537 | 0.537 | 0.546 | 0.587 | 0.56 | 0.357 | 0.371 | 0.371 | 0.405 | 0.446 | 0.747 | 0.744 | 0.698 | 0.445 |
| LU99A | 0.415 | 0.441 | 0.407 | 0.381 | 0.538 | 0.533 | 0.37 | 0.347 | 0.182 | 0.176 | 0.218 | 0.178 | 0.189 | 0.903 | 0.782 | 0.898 | 0.81 |
| LXF-289 | 0.593 | 0.583 | 0.619 | 0.602 | 0.228 | 0.249 | 0.219 | 0.17 | 0.175 | 0.875 | 1 | 0.808 | 0.9 | 0.966 | 0.989 | 0.963 | 0.983 |
| NCI-H23 | 0.507 | 0.574 | 0.421 | 0.482 | 0.82 |  | 0.582 | 0.724 | 0.482 | 0.763 | 0.799 | 0.659 | 0.569 | 0.988 | 0.728 | 0.837 | 0.729 |
| NCI-H322M | 0.515 | 0.508 | 0.476 | 0.451 | 0.251 | 0.251 | 0.241 | 0.274 | 0.234 | 0.648 | 0.65 | 0.59 | 0.504 | 1.28 | 1.25 | 1.15 | 1.12 |
| NCI-H358 | 0.112 | 0.141 | 0.129 | 0.113 |  | 0.134 | 0.109 | 0.152 | 0.15 | 0.177 | 0.218 | 0.168 | 0.161 |  |  |  |  |
| NCI-H441 | 0.204 | 0.219 | 0.235 | 0.164 | 0.685 | 0.783 | 0.609 | 0.486 | 0.415 | 0.276 | 0.258 | 0.299 | 0.26 | 0.775 | 0.732 | 0.629 | 0.374 |
| NCI-H522 | 1.22 | 1.25 | 0.953 | 0.731 | 0.936 | 0.983 | 0.899 | 0.877 | 0.837 | 0.953 | 0.867 | 0.98 | 0.889 |  |  |  |  |
| NCI-H596 |  |  |  |  | 0.607 | 0.621 | 0.545 | 0.739 | 0.5 | 0.442 | 0.51 | 0.505 | 0.461 | 0.982 | 1.05 | 0.995 | 0.939 |
| NCI-H650 | 0.39 | 0.349 | 0.312 | 0.33 | 0.475 | 0.453 | 0.416 | 0.442 | 0.385 | 1.02 | 0.91 | 0.949 | 0.841 |  |  |  |  |
| NCI-H661 | 0.415 | 0.399 | 0.412 | 0.338 | 0.88 | 0.853 | 0.688 | 0.736 | 0.64 | 0.938 | 0.89 | 0.917 | 0.889 |  |  |  |  |
| NCI-H727 | 0.583 | 0.679 | 0.693 | 0.51 | 0.388 | 0.351 | 0.295 | 0.442 | 0.345 |  |  |  |  | 0.426 | 0.446 | 0.346 | 0.247 |
| NCI-H1299 |  |  |  |  |  |  |  |  |  |  |  |  |  | 1.04 | 1.06 | 0.964 | 1.04 |
| NCI-H1563 |  |  |  |  | 0.505 | 0.453 | 0.437 | 0.461 | 0.578 | 0.929 | 0.847 | 0.765 | 0.726 |  |  |  |  |
| NCI-H1623 |  |  |  |  | 0.516 | 0.469 | 0.516 | 0.527 | 0.498 |  |  |  |  |  |  |  |  |
| NCI-H1648 | 0.286 | 0.327 | 0.226 | 0.319 |  |  |  |  |  | 0.617 | 0.868 | 0.688 | 0.683 |  |  |  |  |
| NCI-H1703 |  |  |  |  |  |  |  |  |  |  |  |  |  | 1.22 | 0.914 | 0.457 | 0.178 |
| NCI-H2342 | 0.609 | 0.539 | 0.55 | 0.535 | 0.296 | 0.306 | 0.283 | 0.327 | 0.301 | 0.815 | 0.888 | 0.802 | 0.819 |  |  |  |  |
| SW 900 | 0.599 | 0.633 | 0.571 | 0.395 | 0.54 | 0.538 | 0.613 | 0.518 | 0.448 | 0.488 | 0.486 | 0.493 | 0.46 |  |  |  |  |
